According to patent EP4342530A1, “SORTILIN MODULATORS” (Insusense ApS, priority 2022, dated 2024):

Target: T1, h-Sortilin (Homo sapiens, UniProt Q99523)
T1 sequence (Q99523 78-831): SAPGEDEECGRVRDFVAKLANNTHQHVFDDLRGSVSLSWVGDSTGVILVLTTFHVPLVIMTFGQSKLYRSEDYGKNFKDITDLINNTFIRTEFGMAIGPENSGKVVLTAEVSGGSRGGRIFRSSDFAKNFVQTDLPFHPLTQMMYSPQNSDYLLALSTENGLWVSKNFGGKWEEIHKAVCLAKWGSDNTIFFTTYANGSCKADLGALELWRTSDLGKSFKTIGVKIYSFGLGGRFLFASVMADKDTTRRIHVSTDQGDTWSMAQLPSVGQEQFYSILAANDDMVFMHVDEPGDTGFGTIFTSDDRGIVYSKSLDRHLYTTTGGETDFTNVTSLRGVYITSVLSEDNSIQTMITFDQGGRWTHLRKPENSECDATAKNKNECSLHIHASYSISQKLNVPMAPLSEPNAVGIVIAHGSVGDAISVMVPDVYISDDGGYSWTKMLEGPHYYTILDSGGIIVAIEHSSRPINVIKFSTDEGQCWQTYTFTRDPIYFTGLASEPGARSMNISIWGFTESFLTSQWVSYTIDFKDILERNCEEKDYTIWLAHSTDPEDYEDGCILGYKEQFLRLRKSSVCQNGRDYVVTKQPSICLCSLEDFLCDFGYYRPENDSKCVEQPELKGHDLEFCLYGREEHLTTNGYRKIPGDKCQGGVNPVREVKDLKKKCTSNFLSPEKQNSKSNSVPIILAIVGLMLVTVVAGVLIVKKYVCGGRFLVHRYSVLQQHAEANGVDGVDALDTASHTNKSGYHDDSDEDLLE
Assay: Neurotensin scintillation proximity assay (displacement of [3H]-neurotensin binding)
Details: 150 nM 6his-Sortilin, 5 nM [3H]-Neurotensin; average of at least 2 determinations; read-out: IC50 [3H]Neurotensin SPA
Experimental: The exemplified compounds of the invention were tested in a Neurotensin (NTS) scintillation proximity assay (SPA). NTS, which is a 13 amino acid neuropeptide, is a sortilin ligand. The IC50 is a measure of the amount of the compound required to inhibit the binding of NTS to sortilin by 50%. The skilled person will recognise that the lower the IC50 value, the less of the compound needed to achieve the desired effect, and as a result, the chances of undesirable off-target effects are reduced.
Compound affinity was determined by measuring the displacement of [3H]-neurotensin binding to h-Sortilin in SPA format. Total volume of 40 µl in 50 mM HEPES pH 7.4 assay buffer containing 100 mM NaCl, 2.0 mM CaCl2, 0.1% BSA and 0.1% Tween-20. Compound pre-incubation for 30 minutes at room temperature with 150 nM of 6his-Sortilin before 5 nM [3H]-Neurotensin and Ni chelate imaging beads (Perkin Elmer) were added, after 6 hours the plate was read on a ViewLux with 360 s exposure time. Dose-response evaluation of compounds was performed with 8 concentrations of drugs (covering 3 decades). IC50 values were calculated by nonlinear regression using the sigmoid concentration-response (variable slope) using CDD Vault software. All values reported are average of at least 2 determinations.

**Q.** How did the IC50 turn out when CC(C)(C)CCC(N[C@@H](CCO)c1ccccc1)C(=O)O (mixture of isomers) [Example 39, 2-{[(1S)-3-hydroxy-1-phenylpropyl]amino}-5,5-dimethylhexanoic acid] was run?
**A.** 0.41 µM

**Q.** With C[C@H](N[C@@H](CCC(C)(C)C)C(=O)O)c1ccc2c(c1)CCCC2 [Example 12] as the molecule, how does the IC50 read?
**A.** 0.61 µM

**Q.** With CC(C)(C)CC[C@H](NCc1ccc2c(c1)CCNC2)C(=O)O [Example 15, (S)-5,5-dimethyl-2-(((1,2,3,4-tetrahydroisoquinolin-6-yl)methyl)amino)hexanoic acid] as the molecule, how does the IC50 read?
**A.** 0.9 µM

**Q.** Which IC50 does the source give for CN1CCc2ccc(CN[C@@H](CCC(C)(C)C)C(=O)O)cc2C1 [Example 20, (2S)-5,5-dimethyl-2-{[(2-methyl-1,2,3,4-tetrahydroisoquinolin-7-yl)methyl]amino}hexanoic acid] here?
**A.** 0.47 µM

**Q.** With CN1CCc2ccc(CN[C@@H](CCC(C)(C)C)C(=O)O)cc2C1=O [Example 23, (2S)-5,5-dimethyl-2-{[(2-methyl-1-oxo-1,2,3,4-tetrahydroisoquinolin-7-yl)methyl]amino}hexanoic acid] as the molecule, how does the IC50 read?
**A.** 0.43 µM

**Q.** How did the IC50 turn out when CN1CCc2cc(CN[C@@H](CCC(C)(C)C)C(=O)O)ccc2C1=O [Example 24, (2S)-5,5-dimethyl-2-{[(2-methyl-1-oxo-1,2,3,4-tetrahydroisoquinolin-6-yl)methyl]amino}hexanoic acid] was run?
**A.** 0.63 µM

**Q.** Which IC50 does the source give for Cc1cc(CN[C@@H](CCC(C)(C)C)C(=O)O)cc2c1CCC2 [Example 26, (2S)-5,5-dimethyl-2-{[(7-methyl-2,3-dihydro-1H-inden-5-yl)methyl]amino}hexanoic acid] here?
**A.** 0.52 µM

**Q.** How did the IC50 turn out when CN1C(=O)CCc2cc(CN[C@@H](CCC(C)(C)C)C(=O)O)ccc21 [Example 27, (2S)-5,5-dimethyl-2-{[(1-methyl-2-oxo-1,2,3,4-tetrahydroquinolin-6-yl)methyl]amino}hexanoic acid] was run?
**A.** 0.76 µM

**Q.** With CC(C)(C)CC[C@H](NCc1ccc2c(c1)NC(=O)CC2)C(=O)O [Example 29, (2S)-5,5-dimethyl-2-{[(2-oxo-1,2,3,4-tetrahydroquinolin-7-yl)methyl]amino}hexanoic acid] as the molecule, how does the IC50 read?
**A.** 0.29 µM

**Q.** For CC(C)(C)CC[C@H](NCc1ccc2c(c1)CCC(=O)N2)C(=O)O [Example 31, (2S)-5,5-dimethyl-2-{[(2-oxo-1,2,3,4-tetrahydroquinolin-6-yl)methyl]amino}hexanoic acid], which IC50 is on record?
**A.** 0.9 µM

**Q.** For CC(C)(C)CC[C@H](NCc1ccc2c(c1)N(C(=O)OC(C)(C)C)CCC2)C(=O)O [Example 32, (2S)-2-[({1-[(tert-butoxy)carbonyl]-1,2,3,4-tetrahydroquinolin-7-yl}methyl)amino]-5,5-dimethylhexanoic acid], which IC50 is on record?
**A.** 0.13 µM

**Q.** How did the IC50 turn out when CC(C)(C)CC[C@H](NCc1cccc(-n2cncn2)c1)C(=O)O [Example 35, (2S)-5,5-dimethyl-2-({[3-(1H-1,2,4-triazol-1-yl)phenyl]methyl}amino)hexanoic acid] was run?
**A.** 0.96 µM

**Q.** Which IC50 does the source give for CC(C)(C)CC[C@H](NCc1ccc(Oc2ccccc2)cc1)C(=O)O [Example 36] here?
**A.** 0.52 µM

**Q.** CN(C)c1cccc(CN[C@@H](CCC(C)(C)C)C(=O)O)c1 [Example 37, (2S)-2-({[3-(dimethylamino)phenyl]methyl}amino)-5,5-dimethylhexanoic acid] was tested. Which IC50 did it give?
**A.** 0.57 µM

**Q.** With CC(C)(C)CC[C@H](N[C@H](CCO)c1ccccc1)C(=O)O [Example 40, (2S)-2-{[(1R)-3-hydroxy-1-phenylpropyl]amino}-5,5-dimethylhexanoic acid] as the molecule, how does the IC50 read?
**A.** 6.45 µM

**Q.** With COc1cccc([C@H](CCO)N[C@@H](CCC(C)(C)C)C(=O)O)c1 [Example 41] as the molecule, how does the IC50 read?
**A.** 0.76 µM

**Q.** COc1cccc([C@@H](CCO)N[C@@H](CCC(C)(C)C)C(=O)O)c1 [Example 42] was tested. Which IC50 did it give?
**A.** 0.59 µM

**Q.** How did the IC50 turn out when CC(C)(C)CC[C@H](NCc1cnc2c(c1)CCCO2)C(=O)O [Example 53] was run?
**A.** 0.58 µM

**Q.** For Cc1cc(CN[C@@H](CCC(C)(C)C)C(=O)O)cc2c1CCCO2 [Example 55], which IC50 is on record?
**A.** 0.31 µM

**Q.** For C[C@H](N[C@@H](CCC(C)(C)C)C(=O)O)c1ccc2c(c1)OCCC2 [Example 57], which IC50 is on record?
**A.** 0.3 µM

**Q.** For CC(C)(C)CC[C@H](NCc1cnc2c(c1)OCCO2)C(=O)O [Example 60], which IC50 is on record?
**A.** 0.82 µM

**Q.** How did the IC50 turn out when CC(C)(C)CC[C@H](NCc1ccc2c(c1)OCC2)C(=O)O [Example 62] was run?
**A.** 0.43 µM

**Q.** For CC(C)(C)CC[C@H](NCc1cccc2c1CCOC2)C(=O)O [Example 63], which IC50 is on record?
**A.** 0.65 µM

**Q.** Which IC50 does the source give for C[C@@H](N[C@@H](CCC(C)(C)C)C(=O)O)c1ccc2c(c1)COCC2 [Example 64] here?
**A.** 0.42 µM

**Q.** CC(C)(C)CC[C@H](NCc1cccc2c1COC2)C(=O)O [Example 65] was tested. Which IC50 did it give?
**A.** 0.62 µM

**Q.** For CC(C)(C)CC[C@H](NCc1ccc2c(c1)CCO2)C(=O)O [Example 66], which IC50 is on record?
**A.** 0.7 µM

**Q.** For CC(C)(C)CC[C@H](NCc1cccc2c1COCC2)C(=O)O [Example 67], which IC50 is on record?
**A.** 0.5 µM

**Q.** With C[C@H](N[C@@H](CCC(C)(C)C)C(=O)O)c1ccc2c(c1)COCC2 [Example 69] as the molecule, how does the IC50 read?
**A.** 0.59 µM

**Q.** For C[C@H](N[C@@H](CCC(C)(C)C)C(=O)O)c1cccc2c1OCCO2 [Example 73], which IC50 is on record?
**A.** 0.65 µM

**Q.** Which IC50 does the source give for CC(C)(C)CC[C@H](NCc1cccc2c1CCC2)C(=O)O [Example 74] here?
**A.** 0.85 µM

**Q.** Which IC50 does the source give for C[C@@H](N[C@@H](CCC(C)(C)C)C(=O)O)c1cccc2c1OCCO2 [Example 75] here?
**A.** 1.22 µM

**Q.** Which IC50 does the source give for CC(C)(C)CC[C@H](NCc1cccc(N2CCCC2)c1)C(=O)O [Example 77] here?
**A.** 0.35 µM
